Measured values taken from ChEMBL document CHEMBL1129993, “Synthesis and biological characterization of 1,4,5,6-tetrahydropyrimidine and 2-amino-3,4,5,6-tetrahydropyridine derivatives as selective m1 agonists” (J Med Chem, 1997).

Experiments:
[1] = molecular target: T1, Muscarinic acetylcholine receptor M1 (Mus musculus) (UniProt P12657); test: Percent inhibition (high) of [3H](R)-QNB binding to Muscarinic acetylcholine receptor M1 expressed in A9 L cell line in the absence of 300 uM GTP-gamma-S; format: cell-based; conditions: A9L
T1 sequence (whole entry): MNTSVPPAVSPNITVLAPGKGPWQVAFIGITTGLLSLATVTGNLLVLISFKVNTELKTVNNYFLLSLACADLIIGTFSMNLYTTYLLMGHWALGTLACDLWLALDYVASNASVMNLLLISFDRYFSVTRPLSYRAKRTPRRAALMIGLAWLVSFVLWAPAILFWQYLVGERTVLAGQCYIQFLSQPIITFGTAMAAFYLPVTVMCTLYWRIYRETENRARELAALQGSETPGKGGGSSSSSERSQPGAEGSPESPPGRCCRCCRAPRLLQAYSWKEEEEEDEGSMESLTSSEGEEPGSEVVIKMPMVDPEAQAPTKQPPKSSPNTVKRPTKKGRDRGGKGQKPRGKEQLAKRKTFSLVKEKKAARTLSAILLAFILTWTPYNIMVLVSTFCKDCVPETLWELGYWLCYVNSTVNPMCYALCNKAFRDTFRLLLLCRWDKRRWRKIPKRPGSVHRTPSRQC

[2] = molecular target: Muscarinic acetylcholine receptor M3 (Mus musculus) (UniProt Q9ERZ3); conditions: A9L
Description: Binding affinity (low) of [3H](R)-QNB binding to Muscarinic acetylcholine receptor M3 expressed in A9 L cell line

[3] = molecular target: T2, Muscarinic acetylcholine receptor M2 (Mus musculus) (UniProt Q9ERZ4); conditions: A9L
T2 sequence (whole entry): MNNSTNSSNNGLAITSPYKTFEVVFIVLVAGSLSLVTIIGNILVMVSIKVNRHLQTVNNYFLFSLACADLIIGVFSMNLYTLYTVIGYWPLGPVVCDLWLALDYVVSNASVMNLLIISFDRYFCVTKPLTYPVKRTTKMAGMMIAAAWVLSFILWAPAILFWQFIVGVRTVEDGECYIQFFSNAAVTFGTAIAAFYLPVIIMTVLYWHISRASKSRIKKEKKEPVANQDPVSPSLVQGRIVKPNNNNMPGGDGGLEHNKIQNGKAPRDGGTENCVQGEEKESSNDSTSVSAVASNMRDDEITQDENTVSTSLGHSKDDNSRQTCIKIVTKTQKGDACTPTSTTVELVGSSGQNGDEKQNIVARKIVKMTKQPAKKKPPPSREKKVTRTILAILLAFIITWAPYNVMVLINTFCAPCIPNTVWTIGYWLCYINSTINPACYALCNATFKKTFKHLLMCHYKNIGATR

[4] = molecular target: Muscarinic acetylcholine receptor M3 (Mus musculus) (UniProt Q9ERZ3); test: Binding affinity (high) of [3H](R)-QNB binding to Muscarinic acetylcholine receptor M3 expressed in A9 L cell line; format: cell-based; conditions: A9L
[5] = molecular target: T2, Muscarinic acetylcholine receptor M2 (Mus musculus); conditions: A9L; remark: listed apart in the source
[6] = molecular target: Muscarinic acetylcholine receptor M3 (Mus musculus) (UniProt Q9ERZ3); test: Percent inhibition (high) of [3H](R)-QNB binding to Muscarinic acetylcholine receptor M3 expressed in A9 L cell line; format: cell-based; conditions: A9L, concentration not given here

Sequence of Muscarinic acetylcholine receptor M3 (Mus musculus) (Q9ERZ3 whole entry): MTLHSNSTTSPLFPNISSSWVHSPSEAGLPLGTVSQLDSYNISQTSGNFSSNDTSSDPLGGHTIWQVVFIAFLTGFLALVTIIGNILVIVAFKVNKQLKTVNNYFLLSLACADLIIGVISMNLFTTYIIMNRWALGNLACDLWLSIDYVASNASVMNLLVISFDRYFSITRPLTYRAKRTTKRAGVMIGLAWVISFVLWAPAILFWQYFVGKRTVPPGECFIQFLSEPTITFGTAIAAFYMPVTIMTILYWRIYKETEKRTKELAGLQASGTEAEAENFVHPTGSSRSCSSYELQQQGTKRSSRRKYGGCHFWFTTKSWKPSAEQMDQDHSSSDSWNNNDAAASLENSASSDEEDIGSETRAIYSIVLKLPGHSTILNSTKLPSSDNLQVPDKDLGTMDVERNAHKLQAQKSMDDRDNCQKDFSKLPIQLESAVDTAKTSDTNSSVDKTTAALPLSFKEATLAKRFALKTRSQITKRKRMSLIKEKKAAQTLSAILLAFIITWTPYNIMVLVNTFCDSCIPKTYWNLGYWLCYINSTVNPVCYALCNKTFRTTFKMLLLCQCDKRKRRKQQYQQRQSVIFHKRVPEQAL

Compound	inhibition [1]	KL [2]	KL [3]	KH [4]	KH [5]	inhibition [6]
CCCC#Cc1noc(C2CN=CNC2)n1 (stereo not given)	32.5%	–	–	–	–	–
COC(=O)C1CN=CNC1 (stereo not given)	23.5%	3.3 nM	3.3 nM	–	–	–
C[N+](C)(C)CCOC(N)=O	–	8.4 nM	12 nM	56 nM	0.81 nM	19%
CC#CCOC(=O)C1CN=CNC1 (stereo not given)	23.4%	–	–	–	–	–
C#CCOC(=O)C1CN=CNC1 (stereo not given)	31.5%	–	–	–	–	–
C#CCCOC(=O)C1CN=CNC1 (stereo not given)	23.2%	–	–	–	–	–
Cc1noc(C2CN=CNC2)n1 (stereo not given)	30.9%	0.57 nM	0.46 nM	–	–	95%
Cc1noc(C2=CCCN(C)C2)n1	–	0.46 nM	0.087 nM	16 nM	–	29%
